Here are results for 3 molecules from publication PMC10536065 (ACS Omega, 2023).

Entries after “also recorded” stand apart in the source; their conditions may differ.

The target of data set [1] is T1, Type I collagen (Bos taurus, UniProt P02453+P02465). The data set is described as follows: ELISA saturation binding to collagen. Also noted: species or system bovine. Background: In an ELISA, binding on a coated surface is turned into a signal by an enzyme label.
A short description of data set [2]: Circular dichroism spectroscopy. To be noted: NaCl, MgCl2, CaCl2; 10 μM peptide. In kind it is physicochemical. On the technique in general: CD spectra are sensitive to the conformation of chiral molecules.
Data set [3] addresses T1, Type I collagen. The data set is described as follows: Inhibition of cCBD-LL37 binding to collagen by cCBD. As to conditions: 500 nM cCBD-LL37 with 0–500 nM cCBD, 1 h room temperature; n = 4. Details: species or system bovine.

T1 sequence (P02453 162-1217 limits assumed): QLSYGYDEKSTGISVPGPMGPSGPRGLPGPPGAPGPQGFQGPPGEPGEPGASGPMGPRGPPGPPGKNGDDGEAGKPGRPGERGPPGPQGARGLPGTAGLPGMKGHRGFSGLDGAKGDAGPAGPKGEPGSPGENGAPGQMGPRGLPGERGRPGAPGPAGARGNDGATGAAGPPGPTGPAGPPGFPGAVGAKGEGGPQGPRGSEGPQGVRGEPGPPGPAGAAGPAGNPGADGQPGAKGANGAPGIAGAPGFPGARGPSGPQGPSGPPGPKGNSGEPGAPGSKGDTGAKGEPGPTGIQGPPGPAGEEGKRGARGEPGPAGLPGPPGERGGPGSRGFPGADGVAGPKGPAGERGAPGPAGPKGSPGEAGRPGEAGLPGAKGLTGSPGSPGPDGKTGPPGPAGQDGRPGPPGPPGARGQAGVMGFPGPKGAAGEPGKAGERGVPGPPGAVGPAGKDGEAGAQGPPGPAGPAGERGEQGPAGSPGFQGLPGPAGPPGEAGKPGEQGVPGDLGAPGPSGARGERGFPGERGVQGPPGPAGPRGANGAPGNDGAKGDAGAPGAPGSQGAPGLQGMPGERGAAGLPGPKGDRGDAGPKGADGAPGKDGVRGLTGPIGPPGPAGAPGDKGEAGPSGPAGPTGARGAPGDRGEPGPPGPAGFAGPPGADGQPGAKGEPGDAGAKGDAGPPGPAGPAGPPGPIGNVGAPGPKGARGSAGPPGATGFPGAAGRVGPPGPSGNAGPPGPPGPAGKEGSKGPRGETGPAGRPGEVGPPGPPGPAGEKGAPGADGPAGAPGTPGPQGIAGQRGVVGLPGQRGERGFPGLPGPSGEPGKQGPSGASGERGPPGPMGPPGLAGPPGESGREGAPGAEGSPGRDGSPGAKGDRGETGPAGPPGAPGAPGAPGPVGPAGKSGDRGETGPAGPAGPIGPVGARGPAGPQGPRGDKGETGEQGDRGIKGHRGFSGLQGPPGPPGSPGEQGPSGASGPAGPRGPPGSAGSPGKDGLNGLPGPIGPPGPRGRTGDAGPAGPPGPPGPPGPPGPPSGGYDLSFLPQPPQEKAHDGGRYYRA
T1 sequence (P02465 80-1117 limits assumed): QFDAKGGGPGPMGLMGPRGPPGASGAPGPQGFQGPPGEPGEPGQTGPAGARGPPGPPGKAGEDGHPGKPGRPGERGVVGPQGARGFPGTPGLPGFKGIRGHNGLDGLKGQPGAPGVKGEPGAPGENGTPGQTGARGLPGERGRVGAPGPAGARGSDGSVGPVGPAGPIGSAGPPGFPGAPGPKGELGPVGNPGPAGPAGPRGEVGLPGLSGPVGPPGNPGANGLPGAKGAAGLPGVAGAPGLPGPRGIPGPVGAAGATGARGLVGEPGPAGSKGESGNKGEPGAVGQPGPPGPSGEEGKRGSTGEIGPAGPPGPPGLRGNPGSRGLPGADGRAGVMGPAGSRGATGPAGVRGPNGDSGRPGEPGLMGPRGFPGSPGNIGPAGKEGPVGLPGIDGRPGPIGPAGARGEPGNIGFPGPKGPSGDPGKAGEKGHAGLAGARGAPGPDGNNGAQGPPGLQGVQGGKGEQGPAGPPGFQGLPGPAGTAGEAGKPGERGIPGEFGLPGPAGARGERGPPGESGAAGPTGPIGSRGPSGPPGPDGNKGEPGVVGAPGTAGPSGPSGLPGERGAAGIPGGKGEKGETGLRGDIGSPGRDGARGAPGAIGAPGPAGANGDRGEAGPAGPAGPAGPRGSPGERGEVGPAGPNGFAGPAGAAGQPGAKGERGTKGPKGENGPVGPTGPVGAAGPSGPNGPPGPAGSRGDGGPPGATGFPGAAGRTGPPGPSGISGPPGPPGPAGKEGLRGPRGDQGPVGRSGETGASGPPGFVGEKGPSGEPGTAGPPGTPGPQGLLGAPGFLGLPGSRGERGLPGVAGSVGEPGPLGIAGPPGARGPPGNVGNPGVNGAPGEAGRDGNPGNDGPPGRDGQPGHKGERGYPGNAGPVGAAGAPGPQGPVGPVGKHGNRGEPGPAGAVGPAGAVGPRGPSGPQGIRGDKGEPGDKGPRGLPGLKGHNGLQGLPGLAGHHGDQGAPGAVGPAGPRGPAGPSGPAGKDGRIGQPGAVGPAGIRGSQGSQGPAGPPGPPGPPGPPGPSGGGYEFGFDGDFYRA

A word on the Kd: it is a measure of binding affinity in units of concentration. Low readings indicate tighter binding, high ones weaker binding. Take `CC[C@H](C)[C@H](NC(=O)[C@H](CCCCN)NC(=O)[C@H](CCC(=O)O)NC(=O)[C@H](CCCCN)NC(=O)[C@H](CO)NC(=O)[C@H](CCCCN)NC(=O)[C@H](CCCNC(=N)N)NC(=O)[C@H](Cc1ccccc1)NC(=O)[C@H](Cc1ccccc1)NC(=O)[C@H](CC(=O)O)NC(=O)CNC(=O)[C@H](CC(C)C)NC(=O)[C@@H](N)CC(C)C)C(=O)NCC(=O)N[C@@H](CCCCN)C(=O)N[C@@H](CCC(=O)O)C(=O)N[C@@H](Cc1ccccc1)C(=O)N[C@@H](CCCCN)C(=O)N[C@@H](CCCNC(=N)N)C(=O)N[C@H](C(=O)N[C@H](C(=O)N[C@@H](CCC(N)=O)C(=O)N[C@@H](CCCNC(=N)N)C(=O)N[C@H](C(=O)N[C@@H](CCCCN)C(=O)N[C@@H](CC(=O)O)C(=O)N[C@@H](Cc1ccccc1)C(=O)N[C@@H](CC(C)C)C(=O)N[C@@H](CCCNC(=N)N)C(=O)N[C@@H](CC(N)=O)C(=O)N[C@@H](CC(C)C)C(=O)N[C@H](C(=O)N1CCC[C@H]1C(=O)N[C@@H](CCCNC(=N)N)C(=O)N[C@H](C(=O)N[C@@H](CCC(=O)O)C(=O)N[C@@H](CO)C(=O)N[C@@H](CC(=O)O)C(=O)N[C@@H](Cc1ccc(O)cc1)C(=O)N[C@@H](CCCCN)C(=O)N[C@@H](CC(=O)O)C(=O)N[C@@H](CC(=O)O)C(=O)N[C@@H](CC(=O)O)C(=O)N[C@@H](CC(=O)O)C(=O)N[C@@H](CCCCN)C(=O)N[C@H](C(=O)N[C@@H](CCCCN)C(=O)N[C@@H](CCCCN)C(=O)N[C@H](C(=O)N[C@@H](CC(C)C)C(=O)N[C@@H](CCCNC(=N)N)C(=O)N[C@H](C(=O)O)[C@@H](C)O)[C@@H](C)O)[C@@H](C)O)[C@@H](C)O)C(C)C)[C@@H](C)CC)C(C)C)[C@@H](C)CC` [cCBD-LL37]: the Kd in data set [1] stood at 49 nM. Moreover, in data set [2], the “structural stability at varying ionic strengths compared with LL37” value is recorded as “stronger structural stability at varying ionic strengths when compared with LL37”.
With `CC[C@H](C)[C@H](NC(=O)[C@H](CCCCN)NC(=O)[C@H](CCC(=O)O)NC(=O)[C@H](CCCCN)NC(=O)[C@H](CO)NC(=O)[C@H](CCCCN)NC(=O)[C@H](CCCNC(=N)N)NC(=O)[C@H](Cc1ccccc1)NC(=O)[C@H](Cc1ccccc1)NC(=O)[C@H](CC(=O)O)NC(=O)CNC(=O)[C@H](CC(C)C)NC(=O)[C@@H](N)CC(C)C)C(=O)NCC(=O)N[C@@H](CCCCN)C(=O)N[C@@H](CCC(=O)O)C(=O)N[C@@H](Cc1ccccc1)C(=O)N[C@@H](CCCCN)C(=O)N[C@@H](CCCNC(=N)N)C(=O)N[C@H](C(=O)N[C@H](C(=O)N[C@@H](CCC(N)=O)C(=O)N[C@@H](CCCNC(=N)N)C(=O)N[C@H](C(=O)N[C@@H](CCCCN)C(=O)N[C@@H](CC(=O)O)C(=O)N[C@@H](Cc1ccccc1)C(=O)N[C@@H](CC(C)C)C(=O)N[C@@H](CCCNC(=N)N)C(=O)N[C@@H](CC(N)=O)C(=O)N[C@@H](CC(C)C)C(=O)N[C@H](C(=O)N1CCC[C@H]1C(=O)N[C@@H](CCCNC(=N)N)C(=O)N[C@H](C(=O)N[C@@H](CCC(=O)O)C(=O)N[C@@H](CO)C(=O)O)[C@@H](C)O)C(C)C)[C@@H](C)CC)C(C)C)[C@@H](C)CC` [LL37, reference compound], in data set [1], the Kd is 80 nM.
In the case of DYKDDDDKTKKTLRT [cCBD], the “inhibition of cCBD-LL37 binding to collagen by excess cCBD” value in data set [3] was “significantly (*p < 0.05) inhibited cCBD-LL37 binding to collagen; also recorded: inhibited cCBD-LL37 binding to collagen but did not completely abrogate the binding”.
